# Experimental data from article PMC6667648 (Frontiers in Microbiology, 2019).
# Where a SMILES comes first, the peptide text is derived from it. Bridges are numbered along the chain shown (N, C = ends).
# Experiments:
# [1] = rat plasma, 40 and 750 ng/mL, storage at −80°C, thaw at ambient temperature min 1 h, six replicates, LC-MS/MS
# S. aureus B-767 = assay: microbe, parasite or virus in culture; assay type: cell-based, Staphylococcus aureus; settings: B-767, 24 h
# Method: (§1) Strains were obtained from American Type Culture Collection (ATCC, Manassas, VA) or the clinical isolate collection at Trideum Biosciences (Frederick, MD, USA). Bioluminescence strains of P. aeruginosa 19660, transfected with the Xen5 luciferase gene, and S. aureus ATCC® 49525™ (Wright), transfected with the Xen36 luciferase gene, were obtained from Perkin Elmer (Hopkinton, MA).
# (§2) A single colony was aseptically picked from an agar overlay and released in 25–30 mL of pre-warmed trypticase soy broth in a culture flask. Each culture was incubated overnight in a 37°C incubator. […] Pathogen growth was measured by absorbance at 600 nm. Four replicas were included for each test agent concentration. […]
# MRSA ATCC 33592 = assay: microbe, parasite or virus in culture; assay type: cell-based, Staphylococcus aureus; settings: MRSA ATCC 33592; 24-h incubation; mean of 3 replicates from 2 independent experiments
# Method: as §1, §2
# S. aureus 6061 = assay: microbe, parasite or virus in culture; assay type: cell-based, Staphylococcus aureus; settings: 6061, 24 h
# Method: as §1, §2
# MRSA 6381 = assay: microbe, parasite or virus in culture; assay type: cell-based, Staphylococcus aureus; settings: MRSA 6381; 24-h incubation; mean of 3 replicates from 2 independent experiments
# Method: as §1, §2
# MRSA 6313 = assay: microbe, parasite or virus in culture; assay type: cell-based, Staphylococcus aureus; settings: MRSA 6313; 24-h incubation; mean of 3 replicates from 2 independent experiments
# Method: as §1, §2
# [2] = system: human HaCaT keratinocytes; assay type: cell-based; settings: 256 μg/mL
# Method: (§3) Non-invasive real-time evaluation of viability, mammalian, and bacterial cells, was performed using bioluminescent human keratinocytes (HaCaT, AddexBio, San Diego, CA) and murine L929 fibroblast cells (ATCC, Manassas, VA). The bioluminescent variants were constructed by transfection with a luciferase gene (RediFect Red-Fluc-Puromycin, Catalog #CL596002) (Hamblin et al., [2003]). […] Each concentration was performed in triplicate. Bioluminescence imaging was performed at pre-specified times (0, 15, and 30 min and 1, 3, 5, 8, and 24 h) and compared to concurrently run vehicle-controls. The 96-well plate was positioned on the stage (12.5-cm field of view) within the in vivo Imaging System (IVIS) imaging system (Caliper Life Sciences, Inc., Hopkinton, MA, USA), with an open emission filter, binning of 4, and f-stop 1, and a 1-min exposure time. The resultant photons emitted from the live cells were quantified using Living Image® software (version 4.3, Caliper Life Sciences, Inc.). Monitoring bioluminescence allows assessment of the kinetics of cellular viability as there is a tight correlation between photon count imaging and viable counts (Kadurugamuwa et al., [2003]).
# K. pneumonia 6066 = assay: microbe, parasite or virus in culture; assay type: cell-based, Klebsiella pneumoniae; settings: 24 h
# Method: as §1, §2
# K. pneumonia ATCC 10031 = assay: microbe, parasite or virus in culture; assay type: cell-based, Klebsiella pneumoniae; settings: ATCC 10031, 24 h
# Method: as §1, §2
# K. pneumonia 6069 = assay: microbe, parasite or virus in culture; assay type: cell-based, Klebsiella pneumoniae; settings: 24 h
# Method: as §1, §2
# S. aureus ATCC 29213 = assay: microbe, parasite or virus in culture; settings: S. aureus ATCC 29213, serial passaging at sub-MIC, duplicate
# From the text: (§4) The development of resistance was confirmed if the microorganism started growing at continuously higher concentrations. […] Evaluations were done in duplicate.
# [3] = system: 6 hr MRSA ATCC 1556 biofilm; assay type: cell-based, Staphylococcus aureus; settings: preformed (6 h) MRSA biofilm, 16 h treatment, CFU count, three technical replicates
# [4] = system: mature (120 h) MRSA ATCC 1556 biofilm; assay type: cell-based, Staphylococcus aureus; settings: mature (120 h) MRSA biofilm, 16 h treatment, CFU count, three technical replicates
# [5] = system: MDR S. epidermidis ATCC 700578 biofilm; assay type: cell-based; settings: CFU count
# Method: (§5) Biofilms (methicillin-resistant S. epidermidis, MRSE ATCC 51625 and multidrug resistant S. epidermidis MDR-SE ATCC 700578) were established following inoculation of 10^5 CFU/mL in Minimum Essential Media for 6 h or 5 days representing preformed or mature biofilm respectively, in plastic 96-well plates (Costar, Catalog #3595). […] Following test agent incubation, the media (including the planktonic cells) was removed and then the remaining biofilm treated with 50 μL 0.1% Triton X100 followed by agitating the plate on a rocker for 30 min. The biofilm was then disrupted with a 96 well replicator, the resultant mixture vortexed, samples serially diluted, plated on agar plates, and incubated overnight and CFUs subsequently counted. Three technical replicates were performed for each condition tested.
# [6] = system: methicillin-resistant S. epidermidis biofilm; assay type: cell-based
# Method: as §5
# [7] = pooled normal human serum, 200 μg/mL, 72 h, 37°C, LC-MS/MS, triplicate
# [8] = system: P. aeruginosa P14 biofilm; assay type: cell-based, Pseudomonas aeruginosa; settings: CFU count
# [9] = system: murine L929 fibroblast cells; assay: Fibroblast cytotoxicity, bioluminescence; assay type: cell-based; settings: 64 μg/mL (maximum concentration evaluated), 24 h incubation
# Method: as §3
# [10] = statement in discussion
# S. epidermis ATCC 51625 = assay: microbe, parasite or virus in culture; assay type: cell-based, S. epidermidis; settings: ATCC 51625, 24 h
# Method: as §1, §2
# [11] = system: Gentamicin resistant P. aeruginosa from passage 30; settings: gentamicin resistant P. aeruginosa from passage 30 (gentamicin MIC 512 μg/mL)
# From the text: as §4
# [12] = system: clindamycin resistant S. aureus from passage 30
# From the text: as §4
# human red blood cells = assay: Human hemolysis assay; assay type: cell-based; settings: 30 min, 37°C, absorbance 540 nm, duplicate
# Method: […]. Distilled water was used as a control for 100% hemolysis with the background level of absorbance being water only (Stasiuk et al., [2004]). The percent hemolysis was calculated as (test wellAbs – backgroundAbs) / (100% lysisAbs – backgroundAbs). Experiments were run in duplicate.
structure (smiles),measurement,setting,value
"CC[C@H](C)[C@@H]1NC(=O)CNC(=O)[C@H](CCCCN)NC(=O)[C@H](Cc2ccc(O)cc2)NC(=O)[C@@H]2CSSC[C@H](NC1=O)C(=O)N[C@@H](Cc1ccccc1)C(=O)N[C@@H](CCCCN)C(=O)N[C@@H](CCCCN)C(=O)N[C@H](C(=O)N[C@@H](CCCCN)C(N)=O)CSSC[C@H](NC(=O)[C@H](Cc1ccccc1)NC(=O)[C@@H](N)CCCNC(=N)N)C(=O)N[C@@H](Cc1c[nH]c3ccccc13)C(=O)N[C@@H](CCCCN)C(=O)N[C@@H](C(C)C)C(=O)N2 [RP557] (H-RFCWKVCYKGICFKKCK-NH2; disulfide 3-16, 7-12)",Degradation after three freeze-thaw cycles,[1],did not show signs of degradation
same,Minimum Inhibitory Concentration (MIC),S. aureus B-767,2.0 [4] μM
same,Minimum Inhibitory Concentration (MIC),MRSA ATCC 33592,2.0 [4] μM
same,Minimum Inhibitory Concentration (MIC),S. aureus 6061,4.0 [8] μM
same,Minimum Inhibitory Concentration (MIC),MRSA 6381,2.0 [4] μM
same,Minimum Inhibitory Concentration (MIC),MRSA 6313,2.0 [4] μM
same,Keratinocyte cell killing,[2]; 8 h incubation,no cell killing observed
same,Keratinocyte viability,[2]; 8 h,greater than 80%
same,Minimum Inhibitory Concentration (MIC),K. pneumonia 6066,4.0 [8] μM
same,Minimum Inhibitory Concentration (MIC),K. pneumonia ATCC 10031,4.0 [8] μM
same,Minimum Inhibitory Concentration (MIC),K. pneumonia 6069,2.0 [4] μM
same,MIC on Passage #0 and Passage #1,S. aureus ATCC 29213,2 µg/mL
same,MIC on Passage #30,S. aureus ATCC 29213,32 µg/mL
same,"EC90, biofilm CFU",[3],6 µg/mL
same,EC90 (concentration to reduce biofilm by 90%),[4],2 µg/mL
same,"EC90, biofilm",[5],8 µg/mL
same,"EC90, biofilm",[6],8 µg/mL
same,Degradation in human serum,[7],did not degrade
same,"EC50, biofilm",[8],32 µg/mL
same,Fibroblast cell killing,[9],limited fibroblast cell killing
same,Water solubility,[10],water-soluble
same,Minimum Inhibitory Concentration (MIC),S. epidermis ATCC 51625,4.0 [8] μM
same,MIC,[11],4 µg/mL
same,MIC,[12],2 µg/mL
same,"Minimum hemolytic concentration required to cause 10% hemolysis, MHC",human red blood cells,128 µg/mL
